# Laboratory results from PubChem BioAssay (NCI).
#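 Interpolation was linear, between the two tested concentrations surrounding the appropriate level; five concentrations were tested over 48 hours in 96-well plates. GI50: concentration for 50% inhibition of growth. TGI denotes the concentration required for complete inhibition of growth.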
# Legend:
# Experiment in all cases: DTP human tumour cell line panel, 48 h
# [1] = tested on: HCC-2998 colon
# [2] = tested on: NCI-H23 lung
# [3] = tested on: LOX IMVI melanoma
# [4] = tested on: MDA-MB-231 breast
# [5] = tested on: SNB-19 CNS
# [6] = tested on: EKVX NSCLC
# [7] = tested on: SF-539 CNS
# [8] = tested on: SNB-75 CNS
# [9] = tested on: SN12C renal
# [10] = tested on: IGROV1 ovarian
# [11] = tested on: K-562 leukemia
# [12] = tested on: MCF7 breast
# [13] = tested on: RXF 393 renal
# [14] = tested on: CCRF-CEM leukemia
# [15] = tested on: OVCAR-4 ovarian
# [16] = tested on: PC-3 prostate
# [17] = tested on: MDA-MB-435
# [18] = tested on: UACC-62 melanoma
# [19] = tested on: HCT-15 colon
# [20] = tested on: MALME-3M melanoma
# [21] = tested on: TK-10 renal
# [22] = tested on: UO-31 renal
# [23] = tested on: U251 CNS
# [24] = tested on: OVCAR-3 ovarian
# [25] = tested on: HL-60(TB) leukemia
# [26] = tested on: MDA-MB-468 breast
# [27] = tested on: SF-295 CNS
# [28] = tested on: OVCAR-8 ovarian
# [29] = tested on: OVCAR-5 ovarian
# [30] = tested on: SK-MEL-28 melanoma
# [31] = tested on: HS 578T breast
# [32] = tested on: SK-MEL-5 melanoma
# [33] = tested on: KM12 colon
# [34] = tested on: A498 renal
# [35] = tested on: NCI/ADR-RES ovarian
# [36] = tested on: ACHN renal
# [37] = tested on: DU-145 prostate
# [38] = tested on: RPMI-8226 leukemia
compound,measurement,setting,value
Brc1ccc(-c2n(Cc3ccc4ccccc4c3)c(-c3ccccc3)c(-c3ccccc3)[n+]2Cc2ccc3ccccc3c2)cc1,GI50,[1],344 nM
same,TGI,[1],1370 nM
same,GI50,[2],244 nM
same,TGI,[2],817 nM
same,GI50,[3],272 nM
same,TGI,[3],857 nM
same,GI50,[4],239 nM
same,TGI,[4],707 nM
same,GI50,[5],314 nM
same,TGI,[5],1250 nM
same,GI50,[6],197 nM
same,TGI,[6],1030 nM
same,GI50,[7],338 nM
same,TGI,[7],1250 nM
same,GI50,[8],189 nM
same,TGI,[8],1020 nM
same,GI50,[9],256 nM
same,TGI,[9],1010 nM
same,GI50,[10],301 nM
same,TGI,[10],1490 nM
same,GI50,[11],152 nM
same,TGI,[11],1460 nM
same,GI50,[12],221 nM
same,TGI,[12],816 nM
same,GI50,[13],212 nM
same,TGI,[13],798 nM
same,GI50,[14],342 nM
same,TGI,[14],2010 nM
same,GI50,[15],300 nM
same,TGI,[15],1400 nM
same,GI50,[16],332 nM
same,TGI,[16],1500 nM
same,GI50,[17],295 nM
same,TGI,[17],1070 nM
same,GI50,[18],285 nM
same,TGI,[18],1200 nM
same,GI50,[19],695 nM
same,TGI,[19],2020 nM
same,GI50,[20],214 nM
same,TGI,[20],635 nM
same,GI50,[21],296 nM
same,TGI,[21],1190 nM
same,GI50,[22],1130 nM
same,TGI,[22],2550 nM
same,GI50,[23],248 nM
same,TGI,[23],2600 nM
same,GI50,[24],253 nM
same,TGI,[24],2790 nM
same,GI50,[25],154 nM
same,TGI,[25],533 nM
same,GI50,[26],68.7 nM
same,TGI,[26],494 nM
same,GI50,[27],220 nM
same,TGI,[27],682 nM
same,GI50,[28],302 nM
same,TGI,[28],1800 nM
same,GI50,[29],305 nM
same,TGI,[29],1240 nM
same,GI50,[30],428 nM
same,TGI,[30],1580 nM
same,GI50,[31],439 nM
same,TGI,[31],2180 nM
same,GI50,[32],169 nM
same,TGI,[32],316 nM
same,GI50,[33],276 nM
same,TGI,[33],1130 nM
same,GI50,[34],338 nM
same,TGI,[34],1310 nM
same,GI50,[35],1440 nM
same,TGI,[35],2970 nM
same,GI50,[36],363 nM
same,TGI,[36],1240 nM
same,GI50,[37],381 nM
same,TGI,[37],1480 nM
same,GI50,[38],124 nM
same,TGI,[38],744 nM
